Data taken from US3980794A, “Method for promoting growth of poultry with 3-(5-nitro-2-imidazolyl)pyrazoles” (Eli Lilly and Company, priority 1975, dated 1976).
Converted amounts (≈) assume the structure as drawn. Read-outs that look alike come from different tables or passages of the source.

Experiments:
Format in all cases: cell-based
[1] = system: Propionibacterium acnes 79; test: Susceptibility of anaerobic bacteria, agar dilution; conditions: read-out: 24 Hr. Minimum Inhibitory Concentration
[2] = system: Clostridium ramosum 1313; test: as above; conditions: read-out: 24 Hr. Minimum Inhibitory Concentration
[3] = system: Bacteroides fragilis sp. vulgatus 1563; test: as above; conditions: 24 h, read-out: 24 Hr. Minimum Inhibitory Concentration
[4] = system: Bacteroides fragilis sp. fragilis 1877; test: as above; conditions: 24 h, read-out: 24 Hr. Minimum Inhibitory Concentration
[5] = system: Propionibacterium acnes 44; test: as above; conditions: read-out: 24 Hr. Minimum Inhibitory Concentration
[6] = system: Fusobacterium symbiosum 1470; test: as above; conditions: read-out: 24 Hr. Minimum Inhibitory Concentration
[7] = system: Peptococcus anaerobius 1428; test: as above; conditions: 24 h, read-out: 24 Hr. Minimum Inhibitory Concentration
[8] = system: Clostridium septicum 1128; test: as above; conditions: 24 h, read-out: 24 Hr. Minimum Inhibitory Concentration
Description: (§1) The susceptibility of anaerobic bacteria, both gram positive and gram negative, to a representative number of the novel compounds of this application was determined using the agar dilution method. The bacteria used were isolated from patients hospitalized at the Indiana University Medical Center. The isolates were identified in the anaerobe laboratory of the Medical Center by the criteria established by Dowell et al., Laboratory Methods in Anaerobic Bacteriology. Public Health Serv. Publ. No. 1803 (1968) [Center for Disease Control, Atlanta, Ga.]; and by Smith et al., The Pathogenic Anaerobic Bacteria, pages 96-136 (1968) [Charles C. Thomas, Publisher, Springfield, Ill.]. All the organisms were maintained in chopped meat glucose medium (Scott Labs) at room temperature.
(§2) The method used for the agar dilution tests was based on the studies of Sutter et al., Antimicrob. Ag. Chemother. 3, 188-193 (1973). The strains of anaerobic bacteria were grown in 16 × 120 mm. tubes for 16 to 18 hours in Thioglycolate medium without indicator--135C (Becton, Dickinson and Co.), to which was added 5 mcg. of hemin per milliliter prior to autoclaving, plus 1 mg. of sodium bicarbonate and 0.1 mcg. of filter-sterilized menadione per milliliter after autoclaving. The growth tubes for the bacteria Veillonella alcalescens were additionally supplemented with 5 mg. of sodium lactate per milliliter. The strains were adjusted to the turbidity of the No. 1 McFarland standard in Thioglycolate medium without indicator--135C containing an additional 0.13 percent Bacto-agar (Difco). Each strain was then applied to the surface of the petri plate (100 mm. × 15 mm.) by means of a replicator.
(§3) For the agar dilution studies, two-fold dilutions of the test compounds were prepared in deionized water to which was then added laked sheep blood and filter-sterilized menadione so the concentrations after the agar dilution were 5 percent and 10 mcg./ml. respectively. An equal volume of double strength Brucella agar (Becton, Dickinson and Co.) was mixed with each dilution in a water bath held at 50°C. and then poured onto the petri plates.
(§4) All of the procedures were done inside a plastic glove box, except for the incubation of the growth tubes and the pouring of the plates. After the plates hardened, they were put inside the glove box for a minimum of two hours before they were inoculated. Generally, the glove box procedures of Aranki et al., Applied Microbiology 17, 568-576 (1969), were followed, but the following modifications were used. Dry materials were introduced into the glove box by evacuating the lock to 28 inches of mercury and filling once with nitrogen gas, followed by evacuating in the same manner and filling with an 80 percent nitrogen plus 10 percent CO2 plus 10 percent hydrogen gas mixture. Liquid media and agar plates were introduced into the glove box by evacuating the lock to 10 inches of mercury and filling with gas four times. The nitrogen gas was used to fill the lock for the first two cycles of evacuation, with the gas mixture described above used for the final two fillings.
(§5) All the plates were incubated at 37°C. in Gas Pak jars (Becton, Dickinson and Co.) containing palladium-coated alumina catalysts (reactivated after each use). The results of the agar dilution tests were read after about 24 hours of incubation. The minimum inhibitory concentration (MIC) was recorded as the lowest concentration of test compound at which there was no growth.
(§6) The results of these in vitro tests are recorded in Charts 11 and 12 which follow. The test compounds are identified in the same manner as in the previous experiments. The antibiotics cephalothin and erythromycin were also run simultaneously with the novel compounds of this application, for comparison purposes, and the results are included in Charts 11 and 12 below.

[9] = system: Clostridium septicum bovine; test: as above; conditions: 24 h, read-out: 24 Hr. Minimum Inhibitory Concentration
Description: as §1, §2, §3, §4, §5, §6

[10] = system: Bacteroides fragilis sp. fragilis 1936B; test: as above; conditions: 24 h, read-out: 24 Hr. Minimum Inhibitory Concentration
[11] = system: Bacteroides fragilis sp. thetaiotaomicron 1438; test: as above; conditions: 24 h, read-out: 24 Hr. Minimum Inhibitory Concentration
[12] = system: Fusobacterium necrophorum 13859; test: as above; conditions: read-out: 24 Hr. Minimum Inhibitory Concentration
[13] = system: Clostridium innocuum 1373; test: as above; conditions: read-out: 24 Hr. Minimum Inhibitory Concentration
[14] = system: Eubacterium aerofaciens 1235; test: as above; conditions: read-out: 24 Hr. Minimum Inhibitory Concentration
[15] = system: Actinomyces bovis 13684; test: as above; conditions: read-out: 24 Hr. Minimum Inhibitory Concentration
[16] = system: Peptostreptococcus intermedius 1264; test: as above; conditions: read-out: 24 Hr. Minimum Inhibitory Concentration
[17] = system: Bacteroides fragilis sp. vulgatus 1211; test: as above; conditions: 24 h, read-out: 24 Hr. Minimum Inhibitory Concentration
[18] = system: Clostridium perfringens 81; test: microbe, parasite or virus in culture; conditions: Clostridium perfringens, 81, 24 h, read-out: 24 Hr. Minimum Inhibitory Concentration
[19] = system: Veillonella alcalescens 1; test: Susceptibility of anaerobic bacteria, agar dilution; conditions: read-out: 24 Hr. Minimum Inhibitory Concentration
[20] = Cutibacterium acnes, 24 h, Propionibacterium acnes 79
[21] = Thomasclavelia ramosa, 24 h, Clostridium ramosum 1313
[22] = Bacteroides fragilis sp. vulgatus 1563
[23] = Bacteroides fragilis sp. fragilis 1877
[24] = Cutibacterium acnes, 24 h, Propionibacterium acnes 44
[25] = 24 h, Fusobacterium symbiosum 1470
[26] = Bacteroides fragilis sp. fragilis 1936B
[27] = Bacteroides fragilis sp. thetaiotaomicron 1438
[28] = 24 h, Fusobacterium necrophorum 13859
[29] = 24 h, Clostridium innocuum 1373
[30] = Collinsella aerofaciens, 24 h, Eubacterium aerofaciens 1235
[31] = 24 h, Peptostreptococcus intermedius 1264
[32] = Bacteroides fragilis sp. vulgatus 1211
[33] = Veillonella parvula, 24 h, Veillonella alcalescens 1
[34] = Fusobacterium necrophorum, 13859, 24 h
[35] = Collinsella aerofaciens, 1235, 24 h
[36] = Thomasclavelia ramosa, 1313, 24 h
[37] = [Clostridium] innocuum, 1373, 24 h

Structure (SMILES)	MIC [2, 21] [µg/mL]	MIC [5, 24] [µg/mL]	MIC ([7]; Peptococcus anaerobius 1428) [µg/mL]	MIC [8] [µg/mL]	MIC [9] [µg/mL]	MIC [10, 26] [µg/mL]	MIC [13, 29] [µg/mL]	MIC ([15]; 24 h, Actinomyces bovis 13684) [µg/mL]	MIC [16, 31] [µg/mL]	MIC [18] [µg/mL]	MIC ([1]; Cutibacterium acnes, 79, 24 h) [µg/mL]	MIC ([3]; Bacteroides fragilis) [µg/mL]	MIC ([4]; Bacteroides fragilis) [µg/mL]	MIC ([6]; Fusobacterium, 1470, 24 h) [µg/mL]	MIC ([11]; Bacteroides fragilis) [µg/mL]	MIC [12, 34] [µg/mL]	MIC [14, 35] [µg/mL]	MIC ([17]; Bacteroides fragilis) [µg/mL]	MIC [13, 37] [µg/mL]	MIC ([19]; Veillonella parvula, 1, 24 h) [µg/mL]	further results
Cn1nc(-c2ncc([N+](=O)[O-])n2C)c(C(=O)O)c1N [Compound 10A, 5-amino-1-methyl-3-(1-methyl-5-nitro-2-imidazolyl)pyrazole-4-carboxylic acid]	4 (≈ 15 µM)	> 32	8 (≈ 30.1 µM)	1 (≈ 3.76 µM)	1 (≈ 3.76 µM)	8 (≈ 30.1 µM)	0.5 (≈ 1.88 µM)	4 (≈ 15 µM)	16 (≈ 60.1 µM)	0.5 (≈ 1.88 µM)	–	–	–	–	–	–	–	–	–	–	MIC [1, 20]: 0.5 µg/mL (≈ 1.88 µM); MIC [3, 22]: 0.25 µg/mL (≈ 0.939 µM); MIC [4, 23]: 0.5 µg/mL (≈ 1.88 µM); MIC [6, 25]: < 0.125 µg/mL; MIC [11, 27]: 0.25 µg/mL (≈ 0.939 µM); MIC [12, 28]: < 0.125 µg/mL; MIC [14, 30]: < 0.5 µg/mL; MIC [17, 32]: 0.25 µg/mL (≈ 0.939 µM); MIC [19, 33]: < 0.125 µg/mL
CC(=O)OCC1=C(C(=O)O)N2C(=O)[C@@H](NC(=O)Cc3cccs3)[C@H]2SC1 [Cephalothin, cephalothin, reference compound]	8 (≈ 20.2 µM)	–	–	1 (≈ 2.52 µM)	4 (≈ 10.1 µM)	–	8 (≈ 20.2 µM)	2 (≈ 5.04 µM)	–	2 (≈ 5.04 µM)	1 (≈ 2.52 µM)	8 (≈ 20.2 µM)	> 128	64 (≈ 161 µM)	64 (≈ 161 µM)	< 0.5	2 (≈ 5.04 µM)	4 (≈ 10.1 µM)	–	–	MIC ([5]; Cutibacterium acnes, 44, 24 h): 2 µg/mL (≈ 5.04 µM); MIC [7]: 2 µg/mL (≈ 5.04 µM); MIC ([10]; Bacteroides fragilis): > 128 µg/mL; MIC ([16]; Peptostreptococcus, 1264, 24 h): 1 µg/mL (≈ 2.52 µM); MIC [19, 33]: < 0.5 µg/mL
CNNC=Nc1c(C#N)c(-c2ncc([N+](=O)[O-])n2C)nn1C [Compound 21, N-[4-Cyano-1-methyl-3-(1-methyl-5-nitroimidazol-2-yl)pyrazol-5-yl]formimidic acid, 2-methyl hydrazide]	–	32 (≈ 106 µM)	–	< 0.125	< 0.125	–	–	–	0.5 (≈ 1.65 µM)	< 0.125	< 0.125	< 0.125	< 0.125	< 0.125	< 0.125	< 0.125	< 0.125	< 0.125	< 0.125	< 0.125	MIC [2, 36]: < 0.125 µg/mL; MIC [7]: < 0.125 µg/mL; MIC ([10]; Bacteroides fragilis): < 0.125 µg/mL; MIC ([15]; Actinomyces bovis, 13684, 24 h): < 0.125 µg/mL
CCCn1nc(-c2ncc([N+](=O)[O-])n2C)c(C#N)c1N [Compound 22, 5-Amino-1-(n-propyl)-3-(1-methyl-5-nitro-2-imidazolyl)pyrazole-4-carbonitrile]	–	> 32	–	< 0.125	< 0.125	–	–	–	1 (≈ 3.63 µM)	< 0.125	< 0.125	< 0.125	< 0.125	< 0.125	< 0.125	< 0.125	< 0.125	< 0.125	< 0.125	< 0.125	MIC [2, 36]: < 0.125 µg/mL; MIC [7]: < 0.125 µg/mL; MIC ([10]; Bacteroides fragilis): < 0.125 µg/mL; MIC ([15]; Actinomyces bovis, 13684, 24 h): < 0.125 µg/mL
Cn1c([N+](=O)[O-])cnc1-c1nn(CCCl)c(N)c1C#N [Compound 15, 5-Amino-1-(2-chloroethyl)-3-(1-methyl-5-nitro-2-imidazolyl)pyrazole-4-carbonitrile]	0.5 (≈ 1.69 µM)	> 32	1 (≈ 3.38 µM)	0.25 (≈ 0.845 µM)	< 0.125	0.5 (≈ 1.69 µM)	–	1 (≈ 3.38 µM)	8 (≈ 27.1 µM)	< 0.125	< 0.125	< 0.125	< 0.125	< 0.125	< 0.125	< 0.125	< 0.125	< 0.125	< 0.125	< 0.125	–
CCn1nc(-c2ncc([N+](=O)[O-])n2C)c(C#N)c1N [Compound 16, 5-Amino-1-ethyl-3-(1-methyl-5-nitro-2-imidazolyl)pyrazole-4-carbonitrile]	–	> 32	1 (≈ 3.83 µM)	< 0.125	< 0.125	0.25 (≈ 0.957 µM)	–	–	2 (≈ 7.66 µM)	< 0.125	< 0.125	< 0.125	< 0.125	< 0.125	< 0.125	< 0.125	< 0.125	< 0.125	< 0.125	< 0.125	MIC [2, 36]: < 0.125 µg/mL; MIC ([15]; Actinomyces bovis, 13684, 24 h): < 0.125 µg/mL
CN(C)S(=O)(=O)Nc1c(C#N)c(-c2ncc([N+](=O)[O-])n2C)nn1C [Compound 20]	4 (≈ 11.3 µM)	> 32	1 (≈ 2.82 µM)	8 (≈ 22.6 µM)	8 (≈ 22.6 µM)	2 (≈ 5.64 µM)	16 (≈ 45.2 µM)	2 (≈ 5.64 µM)	32 (≈ 90.3 µM)	8 (≈ 22.6 µM)	–	–	–	–	–	–	–	–	–	–	MIC [1, 20]: 1 µg/mL (≈ 2.82 µM); MIC [3, 22]: 1 µg/mL (≈ 2.82 µM); MIC [4, 23]: 4 µg/mL (≈ 11.3 µM); MIC [6, 25]: 4 µg/mL (≈ 11.3 µM); MIC [11, 27]: 4 µg/mL (≈ 11.3 µM); MIC [12, 28]: 1 µg/mL (≈ 2.82 µM); MIC [14, 30]: 8 µg/mL (≈ 22.6 µM); MIC [17, 32]: 2 µg/mL (≈ 5.64 µM); MIC [19, 33]: 1 µg/mL (≈ 2.82 µM)
